# Experimental data: patent US12264156B2, “Compounds and pharmaceutical compositions thereof for the treatment of diseases” (GALAPAGOS NV, priority 2018, dated 2025)
# Columns and labels:
# SIK2 = biological target: T1, SIK2 (Homo sapiens, UniProt Q9H0K1); experiment: ADP-Glo kinase assay, SIK2; format: biochemical; details: ADP-Glo SIK kinase assay
# T1 construct: purchased ThermoFisher Scientific PV4792
# How it was run: (§1)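 Enzyme–substrate mix was started with ATP and incubated 120 min at RT. ADP formed was quantified by ADP-Glo: 40 min ATP depletion, then 30 min detection reagent converting ADP to ATP for luciferase luminescence, which rises with kinase activity. Controls: 1% DMSO and 10 μM staurosporine (final).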
# SIK3 = biological target: T2, SIK3 (Homo sapiens, UniProt Q9Y2K2); experiment: ADP-Glo kinase assay, SIK3; format: biochemical; details: ADP-Glo SIK kinase assay
# T2 construct: purchased SignalChem S12-11G-100
# T2 sequence (Q9Y2K2 whole entry): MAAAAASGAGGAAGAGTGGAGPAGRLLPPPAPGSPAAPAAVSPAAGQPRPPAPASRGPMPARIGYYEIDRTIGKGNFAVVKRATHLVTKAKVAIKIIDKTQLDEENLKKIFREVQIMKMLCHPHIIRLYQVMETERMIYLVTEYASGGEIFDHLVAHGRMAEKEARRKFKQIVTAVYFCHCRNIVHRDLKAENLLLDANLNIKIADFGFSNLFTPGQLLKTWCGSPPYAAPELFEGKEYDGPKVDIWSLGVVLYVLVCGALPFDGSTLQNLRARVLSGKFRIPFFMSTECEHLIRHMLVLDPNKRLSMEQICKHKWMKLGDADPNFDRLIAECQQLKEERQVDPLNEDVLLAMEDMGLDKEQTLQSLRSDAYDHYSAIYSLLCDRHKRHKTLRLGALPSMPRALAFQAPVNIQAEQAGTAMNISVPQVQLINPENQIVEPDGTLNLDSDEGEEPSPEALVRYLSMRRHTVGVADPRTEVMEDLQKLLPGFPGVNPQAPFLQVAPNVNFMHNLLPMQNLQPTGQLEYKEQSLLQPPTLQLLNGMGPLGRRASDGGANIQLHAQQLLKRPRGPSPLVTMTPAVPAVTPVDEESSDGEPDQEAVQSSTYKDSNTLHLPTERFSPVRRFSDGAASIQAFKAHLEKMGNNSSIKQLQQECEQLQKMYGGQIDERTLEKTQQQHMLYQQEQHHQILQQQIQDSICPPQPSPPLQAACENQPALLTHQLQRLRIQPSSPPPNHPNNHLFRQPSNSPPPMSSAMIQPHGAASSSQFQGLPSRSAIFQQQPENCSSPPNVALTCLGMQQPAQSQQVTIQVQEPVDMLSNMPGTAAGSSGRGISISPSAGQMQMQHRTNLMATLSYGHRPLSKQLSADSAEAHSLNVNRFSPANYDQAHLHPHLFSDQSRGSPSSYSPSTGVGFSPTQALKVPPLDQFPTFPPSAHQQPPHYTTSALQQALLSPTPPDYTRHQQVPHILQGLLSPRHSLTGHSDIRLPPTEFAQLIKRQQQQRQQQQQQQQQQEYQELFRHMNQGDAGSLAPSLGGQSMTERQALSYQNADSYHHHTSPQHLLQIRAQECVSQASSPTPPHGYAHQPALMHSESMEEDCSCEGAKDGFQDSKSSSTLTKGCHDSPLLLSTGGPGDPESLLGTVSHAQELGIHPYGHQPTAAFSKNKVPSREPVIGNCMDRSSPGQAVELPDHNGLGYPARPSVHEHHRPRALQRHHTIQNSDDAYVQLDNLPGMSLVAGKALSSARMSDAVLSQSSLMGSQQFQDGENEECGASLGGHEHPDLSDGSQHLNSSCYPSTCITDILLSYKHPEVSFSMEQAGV
# How it was run: as §1
# SIK1 = biological target: T3, SIK1 (Homo sapiens, UniProt P57059); experiment: ADP-Glo kinase assay, SIK1; format: biochemical; details: ADP-Glo SIK kinase assay
# T3 construct: purchased Carna Biosciences 02-131
# T3 sequence (P57059 whole entry): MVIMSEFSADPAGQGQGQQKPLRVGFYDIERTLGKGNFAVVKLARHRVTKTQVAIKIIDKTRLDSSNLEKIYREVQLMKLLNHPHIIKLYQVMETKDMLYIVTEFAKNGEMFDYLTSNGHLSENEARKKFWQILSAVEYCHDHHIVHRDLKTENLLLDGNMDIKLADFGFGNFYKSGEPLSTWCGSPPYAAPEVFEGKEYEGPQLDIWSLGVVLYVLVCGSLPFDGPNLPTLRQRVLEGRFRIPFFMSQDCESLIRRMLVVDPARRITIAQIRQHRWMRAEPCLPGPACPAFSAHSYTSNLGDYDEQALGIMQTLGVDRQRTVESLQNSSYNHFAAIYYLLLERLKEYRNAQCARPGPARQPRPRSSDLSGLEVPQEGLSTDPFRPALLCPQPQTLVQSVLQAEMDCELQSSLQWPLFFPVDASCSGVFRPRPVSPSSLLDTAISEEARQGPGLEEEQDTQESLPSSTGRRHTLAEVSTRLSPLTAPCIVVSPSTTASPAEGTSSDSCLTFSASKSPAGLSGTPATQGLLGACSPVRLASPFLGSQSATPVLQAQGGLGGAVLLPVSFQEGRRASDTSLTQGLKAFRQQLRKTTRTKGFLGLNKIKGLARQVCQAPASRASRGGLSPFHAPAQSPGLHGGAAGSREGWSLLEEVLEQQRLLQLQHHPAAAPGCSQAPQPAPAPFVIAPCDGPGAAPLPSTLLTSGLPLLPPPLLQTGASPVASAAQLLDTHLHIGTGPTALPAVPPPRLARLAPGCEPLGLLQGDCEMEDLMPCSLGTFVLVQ
# How it was run: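 ADP-Glo, RT throughout. Enz/substrate + ATP, 120 min; ADP-Glo reagent 40 min (ATP depletion); detection reagent 30 min; luminescence read. Neg ctrl 1% DMSO, pos ctrl 10 μM staurosporine, final concs.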
# [1] = system: LPS-induced TNFα in monocyte-derived macrophages (MdM); experiment: MdM assay: LPS-triggered TNFα (ELISA); format: cell-based, human; details: Homo sapiens, Macrophage, 20 h, monocyte-derived macrophages, LPS 200 ng/mL, supernatant after 20 h; read-out: TNFα EC50
# How it was run: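 Compound added 1 h before LPS (200 ng/mL final) to day-10 macrophages derived from magnetically isolated CD14+ human blood monocytes, DMSO held at 0.2%. TNFα secreted over 20 h of stimulation quantified by ELISA against a standard curve.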
# T1 sequence (Q9H0K1 whole entry): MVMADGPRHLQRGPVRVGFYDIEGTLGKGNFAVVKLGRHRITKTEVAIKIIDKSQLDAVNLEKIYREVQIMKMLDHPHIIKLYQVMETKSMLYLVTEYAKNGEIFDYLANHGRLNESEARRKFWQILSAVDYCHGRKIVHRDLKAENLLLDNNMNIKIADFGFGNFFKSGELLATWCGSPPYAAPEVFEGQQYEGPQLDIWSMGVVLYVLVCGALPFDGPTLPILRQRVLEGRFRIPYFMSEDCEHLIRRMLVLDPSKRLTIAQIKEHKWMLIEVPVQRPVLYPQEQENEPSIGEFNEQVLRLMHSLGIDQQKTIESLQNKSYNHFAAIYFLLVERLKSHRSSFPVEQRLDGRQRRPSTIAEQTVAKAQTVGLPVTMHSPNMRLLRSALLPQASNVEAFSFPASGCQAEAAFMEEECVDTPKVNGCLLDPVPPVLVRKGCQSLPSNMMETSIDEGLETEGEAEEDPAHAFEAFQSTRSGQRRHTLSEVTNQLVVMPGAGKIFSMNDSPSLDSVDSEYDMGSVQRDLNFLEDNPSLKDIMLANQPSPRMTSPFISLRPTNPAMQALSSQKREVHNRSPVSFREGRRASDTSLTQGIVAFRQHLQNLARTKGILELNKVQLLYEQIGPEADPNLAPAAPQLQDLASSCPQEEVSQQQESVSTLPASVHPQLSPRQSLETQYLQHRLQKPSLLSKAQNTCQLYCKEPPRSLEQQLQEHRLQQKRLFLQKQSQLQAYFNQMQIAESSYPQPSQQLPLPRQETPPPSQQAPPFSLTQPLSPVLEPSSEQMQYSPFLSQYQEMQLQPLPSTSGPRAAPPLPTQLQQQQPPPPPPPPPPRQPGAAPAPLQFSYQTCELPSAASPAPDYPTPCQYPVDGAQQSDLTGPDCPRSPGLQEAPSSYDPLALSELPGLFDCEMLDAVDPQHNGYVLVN
Structure (SMILES),IC50 (SIK2) [nM],IC50 (SIK3) [nM],IC50 (SIK1) [nM],EC50 [1] [nM]
"COc1cc(-c2cnc3cc(OCCN4CCOC[C@H]4C)ccn23)cc2c1C(=O)N(CC(F)(F)F)CC2 [compound 259, 8-methoxy-6-[7-[2-[(3R)-3-methylmorpholin-4-yl]ethoxy]imidazo[1,2-a]pyridin-3-yl]-2-(2,2,2-trifluoroethyl)-3,4-dihydroisoquinolin-1-one]",10 to 100,10 to 100,100 to 500,100 to 1000
"COc1cc(-c2cnc3cc(OCCCN4CC5(COC5)C4)ccn23)cc(OC(F)F)c1C(=O)NC1CC1 [compound 273, N-cyclopropyl-2-(difluoromethoxy)-6-methoxy-4-[7-[3-(2-oxa-6-azaspiro[3.3]heptan-6-yl)propoxy]imidazo[1,2-a]pyridin-3-yl]benzamide]",0.01 to 10,0.01 to 10,10 to 100,100 to 1000
"COc1cc(-c2cnc3cc(OCCCN4CCC4)ccn23)cc(OC(F)F)c1C(=O)NC1CC1 [compound 274, 4-[7-[3-(azetidin-1-yl)propoxy]imidazo[1,2-a]pyridin-3-yl]-N-cyclopropyl-2-(difluoromethoxy)-6-methoxy-benzamide]",0.01 to 10,0.01 to 10,0.01 to 10,100 to 1000
"COc1cc(-c2cnc3cc(OCCCN4CCCC4)ccn23)cc(OC(F)F)c1C(=O)NC1CC1 [compound 275, N-cyclopropyl-2-(difluoromethoxy)-6-methoxy-4-[7-(3-pyrrolidin-1-ylpropoxy)imidazo[1,2-a]pyridin-3-yl]benzamide]",0.01 to 10,0.01 to 10,10 to 100,100 to 1000
"COc1cc(-c2cnc3cc(OCCN4CCN(C(C)C)CC4)ccn23)cc(OC(F)F)c1C(=O)NC1CC1 [compound 276, N-cyclopropyl-2-(difluoromethoxy)-4-[7-[2-(4-isopropylpiperazin-1-yl)ethoxy]imidazo[1,2-a]pyridin-3-yl]-6-methoxy-benzamide]",0.01 to 10,0.01 to 10,10 to 100,100 to 1000
"COc1cc(-c2cnc3cc(OCCCN4CCNCC4)ccn23)cc(OC(F)F)c1C(=O)NC1CC1 [compound 278, N-cyclopropyl-2-(difluoromethoxy)-6-methoxy-4-[7-(3-piperazin-1-ylpropoxy)imidazo[1,2-a]pyridin-3-yl]benzamide]",0.01 to 10,0.01 to 10,0.01 to 10,1000 to 5000
COc1cc(-c2cnc3cc(OCCOCCN4CCCCC4)ccn23)cc(OC(F)F)c1C(=O)NC1CC1 [compound 305],0.01 to 10,0.01 to 10,10 to 100,100 to 1000
"COc1cc(-c2cnc3cc(OCCCN4CCC5(CC4)CN(C)C(=O)O5)ccn23)cc(OC(F)F)c1C(=O)NC1CC1 [compound 325, N-cyclopropyl-2-(difluoromethoxy)-6-methoxy-4-[7-[3-(3-methyl-2-oxo-1-oxa-3,8-diazaspiro[4.5]decan-8-yl)propoxy]imidazo[1,2-a]pyridin-3-yl]benzamide]",0.01 to 10,0.01 to 10,10 to 100,0.1 to 100
"COc1cc(-c2cnc3cc(OCCCN4CCCC(O)C4)ccn23)cc(OC(F)F)c1C(=O)NC1CC1 (centres unmarked) [compound 328, N-cyclopropyl-2-(difluoromethoxy)-4-[7-[3-(3-hydroxy-1-piperidyl)propoxy]imidazo [1,2-a]pyridin-3-yl]-6-methoxy-benzamide]",0.01 to 10,0.01 to 10,10 to 100,0.1 to 100
"CCOC(=O)C1(F)CCN(CC(O)COc2ccn3c(-c4cc(OC)c(C(=O)NC5CC5)c(OC(F)F)c4)cnc3c2)CC1 (centres unmarked) [compound 384, ethyl 1-[3-[3-[4-(cyclopropylcarbamoyl)-3-(difluoromethoxy)-5-methoxy-phenyl]imidazo[1,2-a]pyridin-7-yl]oxy-2-hydroxy-propyl]-4-fluoro-piperidine-4-carboxylate]",0.01 to 10,0.01 to 10,10 to 100,0.1 to 100
"CCOC(=O)C1(F)CCN(CCOc2ccn3c(-c4cc(OC)c(C(=O)NC5CC5)c(OC(F)F)c4)cnc3c2)CC1 [compound 390, ethyl 1-[2-[3-[4-(cyclopropylcarbamoyl)-3-(difluoromethoxy)-5-methoxy-phenyl]imidazo[1,2-a]pyridin-7-yl]oxyethyl]-4-fluoro-piperidine-4-carboxylate]",0.01 to 10,0.01 to 10,10 to 100,0.1 to 100
